Results as given in BindingDB's records for doi:10.1021/jm800669s (Abbott Laboratories, 2008).

Molecular target: Bcl-2-like protein 1 (Bcl-XL) (Homo sapiens) (UniProt Q07817)
Assay: Displacement of fluorescein labeled BAD peptide from Bcl-XL by fluorescence polarization assay

Sequence of Bcl-2-like protein 1 (Bcl-XL) (Homo sapiens) (Q07817 whole entry, looked up): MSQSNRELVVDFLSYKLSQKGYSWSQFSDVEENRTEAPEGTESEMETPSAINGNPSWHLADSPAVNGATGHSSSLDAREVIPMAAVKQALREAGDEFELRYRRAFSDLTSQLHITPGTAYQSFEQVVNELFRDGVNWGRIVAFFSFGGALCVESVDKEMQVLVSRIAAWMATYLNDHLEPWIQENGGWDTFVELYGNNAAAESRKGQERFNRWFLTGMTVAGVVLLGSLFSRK

Row | Ki [nM] | Structure (SMILES)
1 | 1.4 | CN(C)CC[C@H](CSc1ccccc1)Nc1ccc(S(=O)(=O)NC(=O)c2ccc(N3CCN(CC4=C(c5ccc(Cl)cc5)CCC(C)(C)C4)CC3)cc2)cc1[N+](=O)[O-] [(R)-4-(4-((2-(4-Chlorophenyl)-5,5-dimethylcyclohex-1-enyl)methyl)piperazin-1-yl)-N-(4-(4-(dimethylamino)-1-(phenylthio)butan-2-ylamino)-3-nitrophenylsulfonyl)benzamide]
2 | 14 | CN(C)CC[C@H](CSc1ccccc1)Nc1ccc(S(=O)(=O)NC(=O)c2ccc(N3CCN(Cc4ccccc4-c4ccc(Cl)cc4)CC3)cc2)cc1 [(R)-4-(4-((4'-Chlorobiphenyl-2-yl)methyl)piperazin-1-yl)-N-(4-(4-(dimethylamino)-1-(phenylthio)butan-2-ylamino)phenylsulfonyl)benzamide]
